Test results from patent US4357341A, “Specific irreversible antagonism of histamine receptors by photoaffinity actuated compounds” (priority 1981, dated 1982).
Where two headings read alike, the source gives them in different places. One block for each molecule: values may come before it.

Assays:
[1] = molecular target: T1, histamine receptor (H1), isolated guinea pig vas deferens (Cavia porcellus, UniProt P31389); experiment: cell-based; set-up: Emax: dose or concentration left out as unconfirmed
Procedure: Adult, albino guinea pigs (250-350 g; Hilltop Lab Animals, Scottdale, PA) were killed by a blow to the head. Vasa deferentia were removed, desheathed and mounted in conventional apparatus for the measurement of isometric contractile responses. Each tissue preparation was bathed in a separate glass, water-jacketed organ chamber containing modified Krebs-Henseleit solution (37° C.) for one hour prior to the beginning of the experiment. The tissues were washed every 15 minutes. Resting tension was 200 mg. Agonist agents were added to the bath with stepwise increases in concentration. The agonists were added at 10 minute intervals and the tissues were exposed to each concentration for 2 minutes; the tissues were washed twice with agonist-free Krebs-Henseleit solution, at 5 minute intervals, between agonist additions.
Effect of AAH after irradiation in the presence of histamine receptor ligands. […] AAH was then added to the test tissue, leaving the control exposed only to ligand, and after a 5-minute incubation, both the test and control tissues were irradiated for 5 minutes. Both tissues were washed twice with fresh Krebs-Henseleit solution to remove all agents, and concentration-response determinations were performed 10 minutes after irradiation.

[2] = molecular target: T1, histamine receptor (H1), isolated guinea pig vas deferens; experiment: Histamine-induced contraction of isolated vas deferens after incubation with non-irradiated AAH and washout; format: cell-based; set-up: smooth muscle of the guinea-pig vas deferens; from tissue; host or cells: isolated, desheathed vas deferens of adult albino guinea pigs (Hilltop Lab Animals, Scottdale, PA); conditions: 3×10^-5 M AAH, 10 min incubation, not photoactivated, washed out
Procedure: (§1) The tissues were washed every 15 minutes. Resting tension was 200 mg.
(§2) The effects of AAH on the response of the smooth muscle of the guinea-pig vas deferens to several agonists were examined using the following protocols.
(§3) Effect of AAH without photoactivation. Two types of experiments were performed with non-irradiated AAH. In the first type, the test tissue was exposed to AAH for 10 minutes but not irradiated during the latter five minutes; the AAH was washed out before agonist agents were added. That is, the same schedule as was used above was employed, but the preparations were not irradiated. In the second type of experiment with non-irradiated AAH, the compound was added to the bath 15 minutes before and remained present during the addition of agonists. The contralateral control tissues for these experiments received no treatment.

[3] = system: smooth muscle of the guinea-pig vas deferens, norepinephrine responses; experiment: Norepinephrine-induced contraction of isolated vas deferens (specificity of AAH); format: cell-based; conditions: 3×10^-5 M AAH
Procedure: as §1, §2
(§4) Effect of AAH after photoactivation. While in the organ bath, one tissue of a pair was exposed to AAH for 5 minutes. The preparation was then irradiated with a tungsten-halogen projector lamp (DVY, 650 W, 3400° K., filament ca. 10 cm from the tissue) for 5 minutes. Bath temperature remained at 37° C. during irradiation. At the end of irradiation the tissues were washed twice with fresh Krebs-Kenseleit solution lacking AAH. Concentration-response determinations were begun 10 minutes after irradiation. Contralateral control tissues were irradiated in the absence of AAH and otherwise handled identically. […] Also shown is the time-course of the decline of absorbance at 266 nm. The native spectrum, consisting of a pronounced peak at 266 nm, shoulder at 286 and broad peak at 480-485 nm, was changed by photolysis in a time-dependent manner to one with several smaller peaks and troughs.
(§5) Effect of AAH without photoactivation. Two types of experiments were performed with non-irradiated AAH. In the first type, the test tissue was exposed to AAH for 10 minutes but not irradiated during the latter five minutes; the AAH was washed out before agonist agents were added. […]

[4] = system: smooth muscle of the guinea-pig vas deferens, MgATP responses; experiment: MgATP-induced contraction of isolated vas deferens (specificity of AAH); format: cell-based; conditions: 3×10^-5 M AAH
Procedure: as §1, §2, §4, §5

[5] = molecular target: T1, histamine receptor (H1), isolated guinea pig vas deferens; experiment: Histamine-induced contraction of isolated vas deferens in the continual presence of non-irradiated AAH; format: cell-based; set-up: smooth muscle of the guinea-pig vas deferens; from tissue; host or cells: isolated, desheathed vas deferens of adult albino guinea pigs (Hilltop Lab Animals, Scottdale, PA)
Procedure: as §1, §2, §3

[6] = system: smooth muscle of the guinea-pig vas deferens, acetylcholine responses; experiment: Acetylcholine-induced contraction of isolated vas deferens (specificity of AAH); format: cell-based
Procedure: as §1, §2, §4, §3

[7] = system: guinea pig vas deferens; experiment: Direct contractile effect on isolated vas deferens; format: cell-based; conditions: AAH in the concentrations used
Procedure: as §1

[8] = Photolysis of AAH (absorbance decline at 266 nm); format: physicochemical
Procedure: FIG. 1 is spectra of 3×10^-5 M AAH (dissolved in modified Krebs-Henseleit solution) sampled before (solid line) and 5 minutes (dashed line) and 60 minutes (dotted line) after the beginning of irradiation. The reference cuvette contained modified Krebs-Henseleit solution. The inset illustrates the time-course of decline in absorbance a 266 nm; data points were obtained from scans performed after the irradiation intervals shown.
as §4

[9] = system: smooth muscle of the guinea-pig vas deferens, KCl responses; experiment: KCl-induced contraction of isolated vas deferens (specificity of AAH); format: cell-based
Procedure: as §1, §2, §4, §3

[10] = molecular target: T1, histamine receptor (H1), isolated guinea pig vas deferens; experiment: Histamine-induced contraction of isolated vas deferens after photolysis and washout of AAH; format: cell-based; set-up: smooth muscle of the guinea-pig vas deferens; from tissue; host or cells: isolated, desheathed vas deferens of adult albino guinea pigs (Hilltop Lab Animals, Scottdale, PA)
Procedure: as §1, §2, §4

[11] = non-irradiated, continually present
[12] = 3×10^-5 M AAH, non-irradiated, continually present
[13] = 3×10^-5 M AAH, photoactivated, washed out
[14] = 3×10^-6 M AAH, photolyzed, washed out
[15] = 10^-5 M AAH, photolyzed, washed out

T1 sequence (P31389 whole entry): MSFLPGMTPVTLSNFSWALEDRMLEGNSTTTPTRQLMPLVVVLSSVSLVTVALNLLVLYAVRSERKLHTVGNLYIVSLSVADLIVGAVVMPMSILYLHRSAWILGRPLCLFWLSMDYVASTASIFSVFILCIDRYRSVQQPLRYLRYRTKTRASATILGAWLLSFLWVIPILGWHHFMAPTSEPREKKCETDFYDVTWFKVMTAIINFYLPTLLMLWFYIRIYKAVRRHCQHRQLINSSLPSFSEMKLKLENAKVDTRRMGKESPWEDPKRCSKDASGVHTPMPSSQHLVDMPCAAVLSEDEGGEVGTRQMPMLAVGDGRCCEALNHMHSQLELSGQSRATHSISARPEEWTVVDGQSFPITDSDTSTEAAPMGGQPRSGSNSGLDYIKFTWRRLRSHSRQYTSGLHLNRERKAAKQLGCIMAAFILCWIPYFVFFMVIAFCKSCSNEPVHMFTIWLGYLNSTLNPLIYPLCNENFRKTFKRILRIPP

SMILES: NCCc1c[nH]cn1 [histamine, 2-(4-imidazolyl)ethylamine]
protection against AAH-induced antagonism when present during photoactivation of AAH ([1]; 3×10^-4 M histamine with AAH, n=4): no protective effect | Emax ([1]; read-out: response of the tissue, % of maximum response to histamine): 90 to 100%

SMILES: [N-]=[N+]=Nc1ccc(NCCc2c[nH]cn2)c([N+](=O)[O-])c1 [AAH, 4(5)-[2-(4-azido-2-nitroanilino)ethyl]imidazole]
residual effect on responses to histamine [2]: no residual effect on responses to histamine | shift of norepinephrine concentration-response curve to the left of control [3, 11]: 5.50 fold | effect on maximum responses or EC50's of NE ([3]; photoactivated, washed out): no effect on the maximum responses or EC50's | shift of MgATP concentration-response curve to the left of control [4, 11]: 12.89 fold | effect on maximum responses or EC50's of MgATP ([4]; photoactivated, washed out): no effect on the maximum responses or EC50's | effect on the response to histamine [5, 12]: abolished the response to histamine | shift of the histamine concentration-response curve to the left of control ([5]; 3×10^-6 M AAH, non-irradiated, continually present): 2.01 fold | shape of histamine concentration-response curve ([5]; 10^-5 M AAH, non-irradiated, continually present): "bell-shaped" concentration-response curve | concentration range over which antagonism by AAH was observed ([5]; non-irradiated AAH, continually present): 10 fold | reversibility of antagonism of histamine by non-photolyzed AAH ([5]; not irradiated): reversible if not irradiated | effect on concentration-response relationship for ACh [6, 12]: no significant effect on concentration-response relationships | effect on the maximum response to ACh [6, 13]: no effect on the maximum response to ACh | shift of the ACh concentration-response curve to the right of control [6, 13]: 3.07 fold | responses to acetylcholine after photolysis of AAH ([6]; photolyzed AAH): only slightly reduced | contraction upon addition to the organ bath [7]: did not cause a contraction | half-life at 30 µM ([8]; 3×10^-5 M AAH, modified Krebs-Henseleit solution, tungsten-halogen lamp 650 W, read-out: t1/2 of first-order absorbance reduction at 266 nm caused by photolysis): 3.8 min | percent of the maximum absorbance reduction produced by the 5-minute photoaffinity labeling period ([8]; 5 min irradiation, 266 nm): ca. 62% | effect on concentration-response relationship for KCl [9, 12]: no significant effect on concentration-response relationships | effect on maximum responses or EC50's of KCl [9, 13]: no effect on the maximum responses or EC50's | EC50 ([9]; Cavia porcellus, light or radiation study, read-out: EC50 of KCl, AAH, 3×10^-5 M AAH, non-irradiated, continually present): 15.3 mM | EC50 ([9]; Cavia porcellus, light or radiation study, read-out: EC50 of KCl, AAH, 3×10^-5 M AAH, photoactivated, washed out): 19.5 mM | reversal of antagonism by repeated washing ([10]; 3×10^-5 M AAH, photolyzed): not reversed by repeated washing | effect on the response of the tissues to histamine ([10]; 3×10^-5 M AAH, photolyzed, washed out): abolished the response of the tissues to histamine | effect on maximum response to histamine [10, 14]: small but significant decrease in the maximum response to histamine | shift of the histamine concentration-response curve to the left of control [10, 14]: 1.89 fold | effect on the response of the tissues to histamine [10, 15]: intermediate and irreversible antagonism | shape of histamine concentration-response curve [10, 15]: "bell"-shaped | concentration range over which antagonism by AAH occurred ([10]; photolyzed AAH): 10 fold

EC50 ([9]; irradiated control without AAH, read-out: EC50 of KCl, control): 20 mM | EC50 ([9]; non-irradiated control without AAH, read-out: EC50 of KCl, control): 25 mM
SMILES: [Cl-].[K+] [KCl, reference compound]
